Results published in PubChem BioAssay (NCI).
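Briefly, cells in 96-well plates were exposed to five compound concentrations for 48 h, and endpoints were estimated by linear interpolation. At the GI50, growth is halved. At the TGI there is no net growth.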

Experiments:
Assay in all cases: DTP human tumour cell line panel, 48 h
SK-MEL-2 melanoma = tested on: SK-MEL-2 melanoma
RXF 393 renal = tested on: RXF 393 renal
OVCAR-8 ovarian = tested on: OVCAR-8 ovarian
MDA-MB-435 = tested on: MDA-MB-435
NCI-H226 lung = tested on: NCI-H226 lung
CAKI-1 renal = tested on: CAKI-1 renal
DU-145 prostate = tested on: DU-145 prostate
UO-31 renal = tested on: UO-31 renal
MALME-3M melanoma = tested on: MALME-3M melanoma
SNB-19 CNS = tested on: SNB-19 CNS
MDA-MB-231 breast = tested on: MDA-MB-231 breast
ACHN renal = tested on: ACHN renal
HCT-15 colon = tested on: HCT-15 colon
T-47D breast = tested on: T-47D breast
786-0 renal = tested on: 786-0 renal
PC-3 prostate = tested on: PC-3 prostate
OVCAR-3 ovarian = tested on: OVCAR-3 ovarian
MDA-MB-468 breast = tested on: MDA-MB-468 breast
UACC-62 melanoma = tested on: UACC-62 melanoma
HT29 colon = tested on: HT29 colon
SK-MEL-28 melanoma = tested on: SK-MEL-28 melanoma
CCRF-CEM leukemia = tested on: CCRF-CEM leukemia
KM12 colon = tested on: KM12 colon
HL-60(TB) leukemia = tested on: HL-60(TB) leukemia
NCI-H23 lung = tested on: NCI-H23 lung
SK-MEL-5 melanoma = tested on: SK-MEL-5 melanoma
MOLT-4 leukemia = tested on: MOLT-4 leukemia
HCT-116 colon = tested on: HCT-116 colon
EKVX NSCLC = tested on: EKVX NSCLC
LOX IMVI melanoma = tested on: LOX IMVI melanoma
SW-620 colon = tested on: SW-620 colon
NCI-H460 lung = tested on: NCI-H460 lung
HCC-2998 colon = tested on: HCC-2998 colon
A549 NSCLC = tested on: A549 NSCLC
RPMI-8226 leukemia = tested on: RPMI-8226 leukemia
HOP-92 NSCLC = tested on: HOP-92 NSCLC
MCF7 breast = tested on: MCF7 breast
U251 CNS = tested on: U251 CNS
NCI-H522 lung = tested on: NCI-H522 lung
SK-OV-3 ovarian = tested on: SK-OV-3 ovarian
NCI/ADR-RES ovarian = tested on: NCI/ADR-RES ovarian
K-562 leukemia = tested on: K-562 leukemia
IGROV1 ovarian = tested on: IGROV1 ovarian
HS 578T breast = tested on: HS 578T breast
SF-295 CNS = tested on: SF-295 CNS
SNB-75 CNS = tested on: SNB-75 CNS
A498 renal = tested on: A498 renal
OVCAR-5 ovarian = tested on: OVCAR-5 ovarian
SN12C renal = tested on: SN12C renal
BT-549 breast = tested on: BT-549 breast
HOP-62 NSCLC = tested on: HOP-62 NSCLC
SF-539 CNS = tested on: SF-539 CNS
SF-268 CNS = tested on: SF-268 CNS
UACC-257 melanoma = tested on: UACC-257 melanoma
COLO 205 colon = tested on: COLO 205 colon
TK-10 renal = tested on: TK-10 renal
M14 melanoma = tested on: M14 melanoma
OVCAR-4 ovarian = tested on: OVCAR-4 ovarian
SR leukemia = tested on: SR leukemia

## C/C(=N/O)c1ccc(NC(=O)CSc2nnc(-c3ccc4nc(-c5ccc(Cl)cc5)[nH]c4c3)o2)cc1
SK-MEL-2 melanoma
  GI50: 13.2 µM
  TGI: 27.8 µM
RXF 393 renal
  GI50: 2.38 µM
  TGI: 8.16 µM
OVCAR-8 ovarian
  GI50: 3.29 µM
  TGI: 15.1 µM
MDA-MB-435
  GI50: 3.79 µM
  TGI: 15 µM
NCI-H226 lung
  GI50: 13.5 µM
  TGI: 32.8 µM
CAKI-1 renal
  GI50: 12.3 µM
  TGI: 28.5 µM
DU-145 prostate
  GI50: 17.7 µM
  TGI: 33.3 µM
UO-31 renal
  GI50: 24.8 µM
  TGI: > 100 µM
MALME-3M melanoma
  GI50: 1.93 µM
  TGI: 4.86 µM
SNB-19 CNS
  GI50: 12 µM
  TGI: 25.7 µM
MDA-MB-231 breast
  GI50: 2.22 µM
  TGI: 5.35 µM
ACHN renal
  GI50: 15.8 µM
  TGI: 35 µM
HCT-15 colon
  GI50: 56.9 µM
  TGI: > 100 µM
T-47D breast
  GI50: 17.3 µM
  TGI: 41.9 µM
786-0 renal
  GI50: 3.36 µM
  TGI: 11.8 µM
PC-3 prostate
  GI50: 3.6 µM
  TGI: 16.3 µM
OVCAR-3 ovarian
  GI50: 18.8 µM
  TGI: 38 µM
MDA-MB-468 breast
  GI50: 18.5 µM
  TGI: 33.7 µM
UACC-62 melanoma
  GI50: 3.09 µM
  TGI: 11.1 µM
HT29 colon
  GI50: 9.34 µM
  TGI: 29.8 µM
SK-MEL-28 melanoma
  GI50: 2.23 µM
  TGI: 5.14 µM
CCRF-CEM leukemia
  GI50: 3.05 µM
  TGI: > 100 µM
KM12 colon
  GI50: 16.7 µM
  TGI: 43 µM
HL-60(TB) leukemia
  GI50: 13.8 µM
  TGI: > 100 µM
NCI-H23 lung
  GI50: 3.43 µM
  TGI: 16.7 µM
SK-MEL-5 melanoma
  GI50: 5.47 µM
  TGI: 18.2 µM
MOLT-4 leukemia
  GI50: 3.66 µM
  TGI: > 100 µM
HCT-116 colon
  GI50: 4.78 µM
  TGI: 37.7 µM
EKVX NSCLC
  GI50: 18 µM
  TGI: 45.1 µM
LOX IMVI melanoma
  GI50: 1.94 µM
  TGI: 4.05 µM
SW-620 colon
  GI50: 22 µM
  TGI: 59.5 µM
NCI-H460 lung
  GI50: 12.7 µM
  TGI: 32.4 µM
HCC-2998 colon
  GI50: 43.2 µM
  TGI: > 100 µM
A549 NSCLC
  GI50: 8.19 µM
  TGI: 28.1 µM
RPMI-8226 leukemia
  GI50: 13.6 µM
  TGI: 71.5 µM
HOP-92 NSCLC
  GI50: 3.12 µM
  TGI: 9.48 µM
MCF7 breast
  GI50: 6.65 µM
  TGI: 26 µM
U251 CNS
  GI50: 3.03 µM
  TGI: 8.87 µM
NCI-H522 lung
  GI50: 3.48 µM
  TGI: 17.2 µM
SK-OV-3 ovarian
  GI50: 20.4 µM
  TGI: 39.4 µM
NCI/ADR-RES ovarian
  GI50: > 100 µM
  TGI: > 100 µM
K-562 leukemia
  GI50: 3.39 µM
  TGI: > 100 µM
IGROV1 ovarian
  GI50: 16.2 µM
  TGI: 30.5 µM
HS 578T breast
  GI50: 3.63 µM
  TGI: 28.6 µM
SF-295 CNS
  GI50: 12.9 µM
  TGI: 28.9 µM
SNB-75 CNS
  GI50: 5.87 µM
  TGI: 22.8 µM
A498 renal
  GI50: 21.3 µM
  TGI: 37.1 µM
OVCAR-5 ovarian
  GI50: 17.8 µM
  TGI: 36.1 µM
SN12C renal
  GI50: 4.04 µM
  TGI: 15.5 µM
BT-549 breast
  GI50: 4.36 µM
  TGI: 20.5 µM
HOP-62 NSCLC
  GI50: 2.57 µM
  TGI: 8.69 µM
SF-539 CNS
  GI50: 10.2 µM
  TGI: 22.1 µM
SF-268 CNS
  GI50: 12.7 µM
  TGI: 30.5 µM
UACC-257 melanoma
  GI50: 12.9 µM
  TGI: 29.8 µM
COLO 205 colon
  GI50: 22.3 µM
  TGI: 66.1 µM
TK-10 renal
  GI50: 28.4 µM
  TGI: 56.4 µM
M14 melanoma
  GI50: 3.38 µM
  TGI: 15 µM
OVCAR-4 ovarian
  GI50: 18.7 µM
  TGI: 42 µM

## COc1cccc(NC(=O)c2ccc(NC(=O)CCl)s2)c1
SK-MEL-2 melanoma
  GI50: 28.6 µM
  TGI: > 100 µM
RXF 393 renal
  GI50: 13.6 µM
  TGI: 36.9 µM
OVCAR-8 ovarian
  GI50: 18.5 µM
  TGI: 39.3 µM
MDA-MB-435
  GI50: 18.6 µM
  TGI: 60.9 µM
NCI-H226 lung
  GI50: 15.8 µM
  TGI: 39.2 µM
CAKI-1 renal
  GI50: 16.1 µM
  TGI: 42 µM
DU-145 prostate
  GI50: 36.4 µM
  TGI: > 100 µM
UO-31 renal
  GI50: 13.7 µM
  TGI: 27.6 µM
MALME-3M melanoma
  GI50: 12.5 µM
  TGI: 28.5 µM
SNB-19 CNS
  GI50: 21.8 µM
  TGI: 65.8 µM
MDA-MB-231 breast
  GI50: 15.6 µM
  TGI: 32.6 µM
ACHN renal
  GI50: 17.4 µM
  TGI: 35.9 µM
HCT-15 colon
  GI50: 11.3 µM
  TGI: 40.5 µM
T-47D breast
  GI50: 34.5 µM
  TGI: > 100 µM
786-0 renal
  GI50: 17.1 µM
  TGI: 33 µM
PC-3 prostate
  GI50: 14.9 µM
  TGI: 34.9 µM
OVCAR-3 ovarian
  GI50: 16.7 µM
  TGI: 33.8 µM
MDA-MB-468 breast
  GI50: 14.2 µM
  TGI: 30.6 µM
UACC-62 melanoma
  GI50: 15.3 µM
  TGI: 29.2 µM
HT29 colon
  GI50: 20.3 µM
  TGI: 44.2 µM
SK-MEL-28 melanoma
  GI50: 20.6 µM
  TGI: 52.6 µM
CCRF-CEM leukemia
  GI50: 6.87 µM
  TGI: 51.2 µM
KM12 colon
  GI50: 21.2 µM
  TGI: 54.1 µM
HL-60(TB) leukemia
  GI50: 17.4 µM
  TGI: 99 µM
NCI-H23 lung
  GI50: 17.2 µM
  TGI: 35.5 µM
SK-MEL-5 melanoma
  GI50: 17.4 µM
  TGI: 34.6 µM
MOLT-4 leukemia
  GI50: 12.5 µM
  TGI: 55.8 µM
HCT-116 colon
  GI50: 22.4 µM
  TGI: 88.9 µM
EKVX NSCLC
  GI50: 26.4 µM
  TGI: > 100 µM
LOX IMVI melanoma
  GI50: 11.4 µM
  TGI: 25.1 µM
SW-620 colon
  GI50: 13.4 µM
  TGI: 30.5 µM
NCI-H460 lung
  GI50: 20.8 µM
  TGI: 45.2 µM
HCC-2998 colon
  GI50: 47.8 µM
  TGI: > 100 µM
A549 NSCLC
  GI50: 21.7 µM
  TGI: 53.9 µM
RPMI-8226 leukemia
  GI50: 18.7 µM
  TGI: 46.8 µM
HOP-92 NSCLC
  GI50: 15.4 µM
  TGI: 34.7 µM
MCF7 breast
  GI50: 20.1 µM
  TGI: 66.4 µM
U251 CNS
  GI50: 16.8 µM
  TGI: 31.5 µM
NCI-H522 lung
  GI50: 13.9 µM
  TGI: 30.8 µM
SK-OV-3 ovarian
  GI50: 27 µM
  TGI: 66.5 µM
K-562 leukemia
  GI50: 16.4 µM
  TGI: > 100 µM
IGROV1 ovarian
  GI50: 16.8 µM
  TGI: 35.5 µM
HS 578T breast
  GI50: 20.3 µM
  TGI: 61.1 µM
SF-295 CNS
  GI50: 46.6 µM
  TGI: > 100 µM
SNB-75 CNS
  GI50: 11.7 µM
  TGI: > 100 µM
A498 renal
  GI50: > 100 µM
  TGI: > 100 µM
OVCAR-5 ovarian
  GI50: 21 µM
  TGI: 46.8 µM
SN12C renal
  GI50: 16.1 µM
  TGI: 33.2 µM
BT-549 breast
  GI50: 12.2 µM
  TGI: 29.1 µM
HOP-62 NSCLC
  GI50: 56.7 µM
  TGI: > 100 µM
SF-539 CNS
  GI50: 16.7 µM
  TGI: 31 µM
SR leukemia
  GI50: 4.92 µM
  TGI: 56.2 µM
SF-268 CNS
  GI50: 25 µM
  TGI: > 100 µM
UACC-257 melanoma
  GI50: 55.3 µM
  TGI: > 100 µM
COLO 205 colon
  GI50: 27.9 µM
  TGI: 70.8 µM
TK-10 renal
  GI50: > 100 µM
  TGI: > 100 µM
M14 melanoma
  GI50: 16.3 µM
  TGI: 39.4 µM
OVCAR-4 ovarian
  GI50: 39.2 µM
  TGI: > 100 µM
